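Here, GI50 denotes the concentration required for 50% inhibition of growth. The concentration for full growth arrest is given as TGI.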
Tests used:
Experiment in all cases: NCI-60 cell line screen, 384-well format
EKVX NSCLC = test system: EKVX NSCLC
MDA-MB-231 breast = test system: MDA-MB-231 breast
MDA-MB-468 breast = test system: MDA-MB-468 breast
MOLT-4 leukemia = test system: MOLT-4 leukemia
RPMI-8226 leukemia = test system: RPMI-8226 leukemia
SK-MEL-2 melanoma = test system: SK-MEL-2 melanoma
SK-MEL-5 melanoma = test system: SK-MEL-5 melanoma
SK-OV-3 ovarian = test system: SK-OV-3 ovarian
SN12C renal = test system: SN12C renal
SNB-75 CNS = test system: SNB-75 CNS
SW-620 colon = test system: SW-620 colon
U251 glioblastoma = test system: U251 glioblastoma
UO-31 renal = test system: UO-31 renal

SMILES: CC(C)(O)c1cc(Nc2cc(Oc3cn(C4CC4)nc3C3CCOCC3)ccn2)ccn1
- GI50 (EKVX NSCLC): 51.6 µM
- TGI (EKVX NSCLC): > 100 µM
- GI50 (MDA-MB-231 breast): > 89 µM
- TGI (MDA-MB-231 breast): > 100 µM
- GI50 (MDA-MB-468 breast): 33.8 µM
- TGI (MDA-MB-468 breast): > 83.5 µM
- GI50 (MOLT-4 leukemia): 42.7 µM
- TGI (MOLT-4 leukemia): > 100 µM
- GI50 (RPMI-8226 leukemia): 45.5 µM
- TGI (RPMI-8226 leukemia): > 91 µM
- GI50 (SK-MEL-2 melanoma): > 100 µM
- TGI (SK-MEL-2 melanoma): > 100 µM
- GI50 (SK-MEL-5 melanoma): 16.4 µM
- TGI (SK-MEL-5 melanoma): > 100 µM
- GI50 (SK-OV-3 ovarian): 85.1 µM
- TGI (SK-OV-3 ovarian): > 100 µM
- GI50 (SN12C renal): > 82 µM
- TGI (SN12C renal): > 100 µM
- GI50 (SNB-75 CNS): > 91.6 µM
- TGI (SNB-75 CNS): > 100 µM
- GI50 (SW-620 colon): > 91.7 µM
- TGI (SW-620 colon): > 100 µM
- GI50 (U251 glioblastoma): > 100 µM
- TGI (U251 glioblastoma): > 100 µM
- GI50 (UO-31 renal): > 100 µM
- TGI (UO-31 renal): > 100 µM
